Laboratory results as given in patent publication US20160361298A1, “METHODS AND COMPOSITIONS FOR TREATING CANCER” (Globavir BioSciences, Inc., priority 2015, published 2016).
Where two headings read alike, the source gives them in different places.

Tests used:
Recombinant IDO = biological target: T1, Recombinant IDO (Homo sapiens, UniProt P14902); assay: IDO Inhibition Assay (recombinant enzyme, absorbance at 321 nm); assay type: biochemical; conditions: for activity at 10 µM: read-out: IDO Inhibition Assay Screening (Activity, %) 10 μM; for activity at 1 µM: 1 μM test compound, read-out: IDO Inhibition Assay Screening (Activity, %) 1 μM
T1 construct: Recombinant TDO or IDO was diluted to 16 ng/uL and 50 uL loaded into wells of a 96-well plate
T1 sequence (P14902 whole entry): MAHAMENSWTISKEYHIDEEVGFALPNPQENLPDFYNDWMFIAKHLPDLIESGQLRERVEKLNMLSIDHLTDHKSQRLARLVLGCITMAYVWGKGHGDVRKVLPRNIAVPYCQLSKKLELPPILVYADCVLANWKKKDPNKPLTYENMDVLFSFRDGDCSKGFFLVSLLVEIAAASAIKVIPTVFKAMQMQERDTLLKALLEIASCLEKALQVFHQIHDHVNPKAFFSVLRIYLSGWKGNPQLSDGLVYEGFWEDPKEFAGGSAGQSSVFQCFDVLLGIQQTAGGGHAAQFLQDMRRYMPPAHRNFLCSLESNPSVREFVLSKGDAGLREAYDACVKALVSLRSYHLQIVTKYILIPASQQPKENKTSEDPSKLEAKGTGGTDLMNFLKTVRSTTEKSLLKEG
Method: Inhibition of IDO by TDO/IDO test inhibitors was assessed in vitro. […] Recombinant TDO or IDO was diluted to 16 ng/uL and 50 uL loaded into wells of a 96-well plate. The reaction was started by the addition of 50 uL substrate mixture. […] The rate of increase of absorbance measured in the absence of a TDO/IDO inhibitor is taken as the maximum rate of enzymatic activity.

Recombinant TDO = biological target: T2, Recombinant TDO (Homo sapiens, UniProt P48775); assay: TDO Inhibition Assay (recombinant enzyme, absorbance at 321 nm); assay type: biochemical; conditions: for activity at 10 µM: read-out: TDO Inhibition Assay Screening (Activity, %) 10 μM; for activity at 1 µM: 1 μM test compound, read-out: TDO Inhibition Assay Screening (Activity, %) 1 μM
T2 construct: Recombinant TDO or IDO was diluted to 16 ng/uL and 50 uL loaded into wells of a 96-well plate
T2 sequence (P48775 whole entry): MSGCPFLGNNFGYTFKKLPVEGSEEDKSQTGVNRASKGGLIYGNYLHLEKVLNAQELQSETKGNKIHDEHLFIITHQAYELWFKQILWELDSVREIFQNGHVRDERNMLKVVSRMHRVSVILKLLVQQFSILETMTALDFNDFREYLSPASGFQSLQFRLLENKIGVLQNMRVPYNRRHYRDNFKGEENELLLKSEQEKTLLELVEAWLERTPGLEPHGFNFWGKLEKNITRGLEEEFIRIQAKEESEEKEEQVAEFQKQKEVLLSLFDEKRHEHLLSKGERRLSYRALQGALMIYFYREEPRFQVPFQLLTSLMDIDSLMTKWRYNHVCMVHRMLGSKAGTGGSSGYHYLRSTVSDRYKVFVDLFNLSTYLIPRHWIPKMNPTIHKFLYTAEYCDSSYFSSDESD
Method: Inhibition of IDO by TDO/IDO test inhibitors was assessed in vitro. A substrate mixture was prepared by mixing equal volumes of 80 mM ascorbic acid diluted in 0.405 M Tris, pH 8.0 and a mixture of […] L-tryptophan, 9,000 units/mL catalase and 40 uM methyene blue. Recombinant TDO or IDO was diluted to 16 ng/uL and 50 uL loaded into wells of a 96-well plate. The reaction was started by the addition of 50 uL substrate mixture. The plate was read in kinetic mode at 321 nm for 5 minutes. The rate of increase of absorbance measured in the absence of a TDO/IDO inhibitor is taken as the maximum rate of enzymatic activity.

[1] = tested on: HuT78 (human CTCL cell line); assay: Cancer cell cytotoxicity, CellTiter-Glo Luminescent Cell Viability Assay; conditions: HuT78, read-out: IC50 (μM) cancer cell cytotoxicity
Method: (§1) TDO/IDO test compounds were incubated with various cancer cell lines to determine the effect of the test compounds on cancer cell death. The CellTiter-Glo Luminescent Cell Viability Assay was used to determine cell cytotoxicity by determining the number of viable cells in culture based on quantitation of ATP, which signals the presence of metabolically active cells.

CT26 (murine colon) = assay: as above; conditions: Mus musculus, CT26, read-out: IC50 (μM) cancer cell cytotoxicity
Method: as §1

GL261 (murine glioma) = assay: as above; conditions: Mus musculus, GL261, read-out: IC50 (μM) cancer cell cytotoxicity
Method: as §1

[2] = tested on: U87MG (human glioblastoma); assay: as above; conditions: U-87 MG, read-out: IC50 (μM) cancer cell cytotoxicity
Method: as §1

[3] = tested on: Pano2 (murine pancreatic); assay: as above; conditions: Mus musculus, PanO2, read-out: IC50 (μM) cancer cell cytotoxicity
Method: as §1

[4] = tested on: HT29 (human colorectal adenocarcinoma); assay: as above; conditions: HT-29, read-out: IC50 (μM) cancer cell cytotoxicity
Method: as §1

[5] = tested on: SCC4 (human squamous cell carcinoma); assay: as above; conditions: SCC-4, read-out: IC50 (μM) cancer cell cytotoxicity
Method: as §1

[6] = 10 μM test compound, remaining enzyme activity
[7] = read-out: TDO Inhibition Assay Dose Resp. (IC50)
[8] = read-out: IDO Inhibition Assay Dose Resp. (IC50)

SMILES | activity at 10 µM (Recombinant IDO; [6]) [%] | activity at 10 µM (Recombinant TDO; [6]) [%] | IC50 (Recombinant TDO; [7]) [µM] | activity at 1 µM (Recombinant IDO; remaining enzyme activity) [%] | activity at 1 µM (Recombinant TDO; remaining enzyme activity) [%] | IC50 (Recombinant IDO; [8]) [µM] | IC50 [1] [µM] | IC50 (CT26 (murine colon)) [µM] | IC50 (GL261 (murine glioma)) [µM] | IC50 [2] [µM] | IC50 (Recombinant IDO) [µM] | IC50 [3] [µM] | IC50 [4] [µM] | IC50 [5] [µM] | IC50 (Recombinant TDO) [µM] | activity at 10 µM (Recombinant IDO) [%] | activity at 10 µM (Recombinant TDO) [%]
CC1=NN(c2ccc(C)c(C)c2)C(=O)/C1=N\Nc1cccc(-c2cccc(C(=O)O)c2)c1O [Eltrombopag] | 83 | 5 | 1.05 | – | – | – | – | – | – | – | – | – | – | – | – | – | –
Clc1ccc(C(Cn2ccnc2)OCc2csc3c(Cl)cccc23)c(Cl)c1 (stereo not shown) [Sertaconazole] | 37 | 15 | 4.07 | 63 | 74 | – | 17.7 | 10.9 | 30.1 | 13.9 | 8.25 | 16.1 | 11.9 | – | – | – | –
Clc1ccc(COC(Cn2ccnc2)c2ccc(Cl)cc2Cl)c(Cl)c1 (stereo not shown) [Miconazole] | 27 | 16 | 3.7 | 67 | 74 | – | – | – | – | – | 4.69 | – | – | – | – | – | –
Clc1ccc(C(Cn2ccnc2)OCc2c(Cl)cccc2Cl)c(Cl)c1 (stereo not shown) [Isoconazole] | 53 | 17 | – | 76 | 58 | – | 15.7 | 14.8 | 15.6 | 63.9 | 14.6 | 12.6 | 14.8 | 83.8 | 4.12 | – | –
Clc1ccc(COC(Cn2ccnc2)c2ccc(Cl)cc2Cl)cc1 (stereo not shown) [Econazole] | 28 | 20 | 5.35 | 71 | 80 | – | – | – | – | – | 4.91 | – | – | – | – | – | –
C=C(c1ccccc1OCc1cccc(Cl)c1)n1ccnc1 [Cloconazole] | – | – | 0.532 | – | – | – | 19.4 | 8.06 | 20.3 | 26.7 | – | 9.61 | 10.7 | 46.2 | – | 76 | 5
NS(=O)(=O)NCCNc1nonc1C(=NO)Nc1ccc(F)c(Br)c1 [INCB024360] | – | – | – | – | – | – | 72.5 | 69.9 | 48.9 | – | – | 53.5 | 53.7 | – | – | – | –

Further lines, with some results ahead:

activity at 10 µM (Recombinant IDO; [6]) [%] | activity at 10 µM (Recombinant TDO; [6]) [%] | IC50 (Recombinant TDO; [7]) [µM] | activity at 1 µM (Recombinant IDO; remaining enzyme activity) [%] | activity at 1 µM (Recombinant TDO; remaining enzyme activity) [%] | IC50 (Recombinant IDO; [8]) [µM] | SMILES | IC50 [1] [µM] | IC50 (CT26 (murine colon)) [µM] | IC50 (GL261 (murine glioma)) [µM] | IC50 [2] [µM] | IC50 (Recombinant IDO) [µM] | IC50 [3] [µM] | IC50 [4] [µM] | IC50 [5] [µM] | IC50 (Recombinant TDO) [µM] | activity at 10 µM (Recombinant IDO) [%] | activity at 10 µM (Recombinant TDO) [%]
75 | 62 | – | 84 | 82 | – | O=C(Nc1ccc([N+](=O)[O-])cc1Cl)c1cc(Cl)ccc1O [Niclosamide] | – | – | – | – | – | – | – | – | – | – | –
56 | 82 | 47 | 72 | 93 | 17.4 | CCC(C)n1ncn(-c2ccc(N3CCN(c4ccc(OCC5COC(Cn6cncn6)(c6ccc(Cl)cc6Cl)O5)cc4)CC3)cc2)c1=O (stereo not shown) [Itraconazole] | – | – | – | – | – | – | – | – | – | – | –
88 | 43 | 9.33 | 99 | 89 | 63.4 | Clc1cccc(C(c2ccc3[nH]cnc3c2)n2ccnc2)c1 (stereo not shown) [Liarozole] | – | – | – | – | – | – | – | – | – | – | –
47 | 28 | 4.16 | 76 | 83 | 9.33 | Clc1ccc(C(Cn2ccnc2)OCc2ccsc2Cl)c(Cl)c1 (stereo not shown) [Tioconazole] | 12.1 | 14 | 27 | 26.1 | – | 22.2 | 18.2 | 28.2 | – | – | –
56 | -34 | 2.73 | 85 | 89 | – | Clc1ccc(C(Cn2ccnc2)OCc2ccc(Sc3ccccc3)cc2)c(Cl)c1 (stereo not shown) [Fenticonazole] | 9.16 | 7.6 | 15.2 | 15.6 | – | 16.1 | 13.9 | 78.8 | – | – | –
85 | 69 | – | 90 | 107 | – | O=C(O)c1ccc(-n2nc(-c3ccccc3O)nc2-c2ccccc2O)cc1 [Deferasirox] | – | – | – | – | – | – | – | – | – | – | –
